Key:
BSJ-03-123 = compound: CC(=O)c1c(C)c2cnc(Nc3ccc(N4CCN(CCOCCOCCOCCNC(=O)COc5cccc6c5C(=O)N(C5CCC(=O)NC5=O)C6=O)CC4)cn3)nc2n(C2CCCC2)c1=O [BSJ-03-123]; assay: GR value, 72 h; higher = faster growth (1 = untreated, <0 = killing);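 note: breast cancer and non-malignant breast epithelial lines, nine half-log doses, viable cells counted by Hoechst and LIVE/DEAD dye imaging versus time-zero plates and DMSO controls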
YKL-5-124 = compound: C=CC(=O)Nc1ccc(C(=O)Nc2[nH]nc3c2CN(C(=O)N[C@H](CN(C)C)c2ccccc2)C3(C)C)cc1 [YKL-5-124]; assay: as above
[1] = compound: CCN1CCN(Cc2ccc(Nc3ncc(F)c(-c4cc(F)c5nc(C)n(C(C)C)c5c4)n3)nc2)CC1; assay: as above
THZ531 [2] = compound: T1, CN(C)C/C=C/C(=O)Nc1ccc(C(=O)N2CCC[C@@H](Nc3ncc(Cl)c(-c4c[nH]c5ccccc45)n3)C2)cc1 [THZ531]; assay: as above
[3] = compound: CCc1cnn2c(NCc3ccc[n+]([O-])c3)cc(N3CCCC[C@H]3CCO)nc12; assay: as above
THZ1 = compound: CN(C)C/C=C/C(=O)Nc1ccc(C(=O)Nc2cccc(Nc3ncc(Cl)c(-c4c[nH]c5ccccc45)n3)c2)cc1 [THZ1]; assay: as above
[4] = compound: CC(=O)c1c(C)c2cnc(Nc3ccc(N4CCNCC4)cn3)nc2n(C2CCCC2)c1=O; assay: as above
LEE011/Ribociclib = compound: CN(C)C(=O)c1cc2cnc(Nc3ccc(N4CCNCC4)cn3)nc2n1C1CCCC1 [LEE011/Ribociclib]; assay: as above
senexin b = compound: CN1CCN(C(=O)c2ccc3cc(CCNc4ncnc5ccc(C#N)cc45)ccc3c2)CC1 [senexin b]
Tivantinib/ARQ197 = compound: O=C1NC(=O)[C@@H](c2cn3c4c(cccc24)CCC3)[C@@H]1c1c[nH]c2ccccc12 [Tivantinib/ARQ197]
THZ531 [5] = compound: T1, THZ531
BSJ-01-175 = compound: CN(C)C/C=C/C(=O)Nc1ccc(O[C@@H]2CCC[C@@H](Nc3ncc(Cl)c(-c4c[nH]c5ccccc45)n3)C2)cc1 [BSJ-01-175]
Pictilisib/GDC0941 = compound: CS(=O)(=O)N1CCN(Cc2cc3nc(-c4cccc5[nH]ncc45)nc(N4CCOCC4)c3s2)CC1 [Pictilisib/GDC0941]
Rucaparib = compound: CNCc1ccc(-c2[nH]c3cc(F)cc4c3c2CCNC4=O)cc1 [Rucaparib]
AZD6738 = compound: C[C@@H]1COCCN1c1cc(C2([S@](C)(=N)=O)CC2)nc(-c2cc[nH]c3nccc2-3)n1 [AZD6738]
Cediranib/AZD2171 = compound: COc1cc2c(Oc3ccc4[nH]c(C)cc4c3F)ncnc2cc1OCCCN1CCCC1 [Cediranib/AZD2171]
Ceritinib/LDK378 = compound: Cc1cc(Nc2ncc(Cl)c(Nc3ccccc3S(=O)(=O)C(C)C)n2)c(OC(C)C)cc1C1CCNCC1 [Ceritinib/LDK378]
Paclitaxel = compound: CC(=O)O[C@H]1C(=O)[C@@]2(C)[C@H]([C@H](OC(=O)c3ccccc3)[C@]3(O)C[C@H](OC(=O)[C@H](O)[C@@H](NC(=O)c4ccccc4)c4ccccc4)C(C)=C1C3(C)C)[C@]1(OC(C)=O)CO[C@@H]1C[C@@H]2O [Paclitaxel]
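Throughout, for GR50, 72 h: breast cancer and non-malignant breast epithelial cell lines, Deep Dye Drop or Dye Drop imaging, nine half-log doses, GR normalized to time-zero plates and DMSO-only controls.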

## HCC1806
BSJ-03-123; 0.001 µM
  GR value: 1 GR
BSJ-03-123; 0.003162 µM
  GR value: 0.98 GR
BSJ-03-123; 0.01 µM
  GR value: 0.958 GR
BSJ-03-123; 0.03162 µM
  GR value: 0.963 GR
BSJ-03-123; 0.1 µM
  GR value: 0.902 GR
BSJ-03-123; 0.3162 µM
  GR value: 0.831 GR
BSJ-03-123; 1 µM
  GR value: 0.648 GR
BSJ-03-123; 3.162 µM
  GR value: 0.566 GR
BSJ-03-123; 10 µM
  GR value: -0.0555 GR
YKL-5-124; 0.001 µM
  GR value: 0.386 GR
YKL-5-124; 0.003162 µM
  GR value: 0.232 GR
YKL-5-124; 0.01 µM
  GR value: 0.105 GR
YKL-5-124; 0.03162 µM
  GR value: 0.0295 GR
YKL-5-124; 0.1 µM
  GR value: -0.0411 GR
YKL-5-124; 0.3162 µM
  GR value: -0.075 GR
YKL-5-124; 1 µM
  GR value: -0.155 GR
YKL-5-124; 3.162 µM
  GR value: -0.19 GR
YKL-5-124; 10 µM
  GR value: -0.466 GR
[1]; 0.001 µM
  GR value: 0.986 GR
[1]; 0.003162 µM
  GR value: 0.943 GR
[1]; 0.01 µM
  GR value: 0.894 GR
[1]; 0.03162 µM
  GR value: 0.779 GR
[1]; 0.1 µM
  GR value: 0.75 GR
[1]; 0.3162 µM
  GR value: 0.667 GR
[1]; 1 µM
  GR value: 0.447 GR
[1]; 3.162 µM
  GR value: 0.129 GR
[1]; 10 µM
  GR value: -0.456 GR
THZ531 [2]; 0.0001 µM
  GR value: 0.976 GR
THZ531 [2]; 0.0003162 µM
  GR value: 0.999 GR
THZ531 [2]; 0.001 µM
  GR value: 1.04 GR
THZ531 [2]; 0.003162 µM
  GR value: 1.01 GR
THZ531 [2]; 0.01 µM
  GR value: 1.07 GR
THZ531 [2]; 0.03162 µM
  GR value: 1 GR
THZ531 [2]; 0.1 µM
  GR value: 0.992 GR
THZ531 [2]; 0.3162 µM
  GR value: 0.659 GR
THZ531 [2]; 1 µM
  GR value: -0.489 GR
[3]; 0.0001 µM
  GR value: 1.04 GR
[3]; 0.0003162 µM
  GR value: 1.05 GR
[3]; 0.001 µM
  GR value: 1 GR
[3]; 0.003162 µM
  GR value: 1.01 GR
[3]; 0.01 µM
  GR value: 0.798 GR
[3]; 0.03162 µM
  GR value: -0.315 GR
[3]; 0.1 µM
  GR value: -0.472 GR
[3]; 0.3162 µM
  GR value: -0.465 GR
[3]; 1 µM
  GR value: -0.45 GR
THZ1; 0.0001 µM
  GR value: 1.08 GR
THZ1; 0.0003162 µM
  GR value: 1.04 GR
THZ1; 0.001 µM
  GR value: 1.04 GR
THZ1; 0.003162 µM
  GR value: 1 GR
THZ1; 0.01 µM
  GR value: 0.968 GR
THZ1; 0.03162 µM
  GR value: 0.739 GR
THZ1; 0.1 µM
  GR value: 0.323 GR
THZ1; 0.3162 µM
  GR value: -0.252 GR
THZ1; 1 µM
  GR value: -0.656 GR
[4]; 0.0003162 µM
  GR value: 1.07 GR
[4]; 0.001 µM
  GR value: 1.02 GR
[4]; 0.003162 µM
  GR value: 0.939 GR
[4]; 0.01 µM
  GR value: 0.965 GR
[4]; 0.03162 µM
  GR value: 0.851 GR
[4]; 0.1 µM
  GR value: 0.695 GR
[4]; 0.3162 µM
  GR value: 0.739 GR
[4]; 1 µM
  GR value: 0.625 GR
[4]; 3.162 µM
  GR value: 0.771 GR
LEE011/Ribociclib; 0.001 µM
  GR value: 0.919 GR
LEE011/Ribociclib; 0.003162 µM
  GR value: 0.948 GR
LEE011/Ribociclib; 0.01 µM
  GR value: 0.884 GR
LEE011/Ribociclib; 0.03162 µM
  GR value: 0.886 GR
LEE011/Ribociclib; 0.1 µM
  GR value: 0.876 GR
LEE011/Ribociclib; 0.3162 µM
  GR value: 0.824 GR
LEE011/Ribociclib; 1 µM
  GR value: 0.796 GR
LEE011/Ribociclib; 3.162 µM
  GR value: 0.801 GR
LEE011/Ribociclib; 10 µM
  GR value: 0.699 GR
Senexin b
  GR50, 72 h: > 10 µM
Tivantinib/ARQ197
  GR50, 72 h: 0.272 µM
THZ531 [5]
  GR50, 72 h: 0.407 µM
BSJ-01-175
  GR50, 72 h: 0.092 µM
Pictilisib/GDC0941
  GR50, 72 h: 5.87 µM
Rucaparib
  GR50, 72 h: > 10 µM
AZD6738
  GR50, 72 h: 1.1 µM
Cediranib/AZD2171
  GR50, 72 h: 4.93 µM
Ceritinib/LDK378
  GR50, 72 h: 2.14 µM
Paclitaxel
  GR50, 72 h: 0.00143 µM

Source: the supplement of paper PMC9663587
